Measurements: patent KR20100130589A, “중독 치료에서의 aldh-2 저해제” (질레드 팔로 알토 인코포레이티드, priority 2008, dated 2009)
Entries after “also recorded” stand apart in the source; their conditions may differ.

Experiments:
[1] = Cocaine reinstatement (relapse) after extinction of intravenous cocaine self-administration; assay type: in vivo, Sprague-Dawley rat; conditions: rat; for effect on cocaine-induced relapse, compared with Compound A (result in words): tested similarly
[2] = Nicotine intravenous self-administration; assay type: in vivo, Wistar-derived rat; conditions: rat, escalating doses 0.00, 7.5, 10 and 15 mg/kg ip, 30 min before session; Figure 1
[3] = target: T1, human mitochondrial aldehyde dehydrogenase (ALDH-2) [인간 미토콘드리아 알데히드 디히드로게나아제 (ALDH-2)] (Homo sapiens, UniProt P05091); conditions: potency and selectivity in words; cited from earlier work
T1 sequence (P05091 18-517): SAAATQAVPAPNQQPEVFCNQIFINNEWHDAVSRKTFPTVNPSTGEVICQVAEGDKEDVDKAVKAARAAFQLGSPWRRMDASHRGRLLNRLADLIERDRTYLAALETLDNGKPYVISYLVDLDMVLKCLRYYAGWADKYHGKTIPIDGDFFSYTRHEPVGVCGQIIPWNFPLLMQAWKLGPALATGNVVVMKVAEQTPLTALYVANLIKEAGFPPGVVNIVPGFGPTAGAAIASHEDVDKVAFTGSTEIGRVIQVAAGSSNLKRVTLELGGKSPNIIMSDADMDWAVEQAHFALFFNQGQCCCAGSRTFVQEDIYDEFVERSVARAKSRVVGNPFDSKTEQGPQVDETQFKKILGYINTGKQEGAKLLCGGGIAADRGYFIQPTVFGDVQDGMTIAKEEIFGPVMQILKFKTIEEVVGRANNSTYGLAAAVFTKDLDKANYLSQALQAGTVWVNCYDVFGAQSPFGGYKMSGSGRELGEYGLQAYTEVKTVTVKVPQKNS

[4] = in vivo; cited from earlier work

## O=C(O)c1cccc(-c2nc(COc3ccc4c(=O)c(-c5ccc(O)cc5)coc4c3)no2)c1 [3-(3-{[3-(4-히드록시페닐)-4-옥소크로멘-7-일옥시]메틸}-1,2,4-옥사디아졸-5-일)벤조산]
[1]
  effect on cocaine-induced relapse, compared with Compound A (result in words): 유사한 결과가 수득되었다

## CS(=O)(=O)Nc1ccc(-c2coc3cc(OCc4cccc(C(=O)O)c4)ccc3c2=O)cc1 [3-[(3-{4-[(메틸술포닐)아미노]페닐}-4-옥소크로멘-7-일옥시)메틸]벤조산]
[1]; 7.5 and 10 mg/kg before priming injection of cocaine (10 mg/kg)
  lever press response after cocaine priming (effect in words): 지렛대 누름 반응에서 증가를 보여주지 않았다 (재발하지 않음)
[1]; ip, dose-dependent, cocaine priming 10 mg/kg
  cocaine relapse (effect in words): 투여량에 좌우되어 코카인에 대한 재발을 차단했다
[2]
  number of bar presses for nicotine (plotted as number of infusions): 횟수를 감소시켰다; also recorded: 바아 프레스의 횟수를 감소시키는

## O=c1c(-c2ccc(O)cc2)coc2cc(O)ccc12 [다이드진]
[3]
  inhibition of ALDH-2 (in words): 강력하고 선택적인 저해제
[4]
  suppression of ethanol intake / absorption (in words): 에탄올 흡수 억제에 유효한

## O=c1c(-c2ccc(O)cc2)coc2cc(O[C@@H]3O[C@H](CO)[C@@H](O)[C@H](O)[C@H]3O)ccc12 [다이드진 (daidzein)]
[4]
  suppression of ethanol intake / absorption (in words): 에탄올 섭취 억제에 효과적인

## O=c1c(-c2ccc(O)cc2)coc2cc(OCc3noc(-c4cc(F)cc(C(F)(F)F)c4)n3)ccc12 [7-({5-[3-플루오로-5-(트리플루오로메틸)페닐](1,2,4-옥사디아졸-3-일)}메톡시)-3-(4-히드록시페닐)크로멘-4-온]
[1]
  effect on cocaine-induced relapse, compared with Compound A (result in words): 유사한 결과가 수득되었다
